Source: patent US20230392126A1, “TISSUE ORGANOIDS” (priority 2016, published 2023)

What was measured:
[1] = Stability and tolerance of transplanted skin organoids in immunocompetent hosts; format: in vivo, mouse; details: CD1 hosts
Source text: For grafting with skin organoids, CD1 (isogenic mouse keratinocyte transplantation) males or Nude (human keratinocyte transplantation) females with the ages of 6-8 weeks were anesthetized. A silicone chamber bottom with the interior diameter of 0.8 cm and the exterior diameter of 1.5 cm was implanted on its shaved dorsal mid-line skin, which was used to hold the skin graft. A chamber cap was installed to seal the chamber right after a piece of graft was implanted. About one week later, the chamber cap was removed to expose the graft to air. A single dose of 0.2 mg α-CD4 (GK1.5) and 0.2 mg α-CD8 (2.43.1) antibodies was administered intraperitoneally for skin grafting.
Optical imaging was performed in the integrated small animal imaging research resource (iSAIRR) at the University of Chicago. Bioluminescence images were acquired on an IVIS Spectrum (Caliper Life Sciences®, Alameda, CA) after animal was injected with luciferin (100 mg/kg). […]
Grafted cells in immunocompetent hosts readily expressed exogenous genes, such as Luciferase and Histone H2B-RFP (FIG. 1B-D), which were transduced to the cells with lentivirus. […] Importantly, the tissue organoid with expression of exogenous gene, such as Luciferase and H2B-RFP, was stable in vivo for more than 5 months in immunocompetent hosts, as determined by intravital bioluminescence imaging and tissue histology. […]

[2] = system: mouse epidermal cells; test: Secretion of GLP1 in cell culture medium by ELISA (mouse epidermal cells); format: cell-based
[3] = Intraperitoneal glucose tolerance test (IPGTT) in grafted mice fed HFD; format: in vivo, mouse
Procedure: For glucose tolerance testing, an intraperitoneal glucose tolerance test (IPGTT) was performed on mice fed an HFD for 10 weeks. Mice were fasted for 6 h before the test. Animals were injected (1 g/kg glucose/body weight, i.p.) with glucose dissolved in saline, and blood glucose was measured at 0, 10, 20, 30, 60 and 90 minutes using glucose test strips and glucose meters.
IPGTT was performed to examine glucose homeostasis.
(§1) For glucose and insulin tolerance tests, an intraperitoneal glucose tolerance test (IPGTT) was performed on mice fed an HFD for 10 weeks. Mice were fasted for 6 h before the test. Animals were injected (1 g/kg glucose/body weight, i.p.) with glucose dissolved in saline, and blood glucose was measured at 0, 30, 60 and 90 min using glucose test strips and glucose meters. An intraperitoneal insulin tolerance test was carried out 1 week after IPGTT. Mice were fasted for 4 h and injected (2 U/kg, i.p.) with insulin purchased from Sigma (St. Louis, MO). Blood glucose levels were determined thereafter at 0, 30, 60 and 90 min.
(§2) To examine glucose homeostasis, IPGTT (intraperitoneal glucose tolerance test) and ITT (insulin tolerance test) were performed.

[4] = system: insulinoma cells; test: Insulin secretion of starved insulinoma cells treated with conditioned medium (ELISA); format: cell-based
[5] = GLP1 level in blood by ELISA, CD1 mice grafted with mouse skin organoids; format: in vivo
Procedure: To investigate the potential therapeutic effect of GLP1 in vivo, skin organoid cultures with epidermal keratinocytes targeted with a GLP1-expression vector or a control vector, and transplant the organoids to CD1 host animals (FIGS. 11A and 11B-C) were prepared. […] Expression of GLP1 in grafted animals was stable for more than 3 months (FIG. 11K).

[6] = GLP1 level in blood by ELISA, nude mice grafted with human skin organoids; format: in vivo, mouse; details: human GLP1-expressing grafts, doxycycline food
Source text: The engineered cells stratified and formed skin organoids in vitro, which were transplanted to nude hosts (FIG. 13G-H).

[7] = Intraperitoneal insulin tolerance test (ITT) in grafted mice; format: in vivo, mouse; details: vs control mice or GLP1 mice without doxycycline
Procedure: as §1, §2

[8] = Obesity induced by high fat diet in grafted mice; format: in vivo, mouse
Source text: (§3) Male CD-1 mice with skin transplants were housed (5 per cage, ˜8 weeks old) in a central-controlled animal facility for air, humidity and temperature. These mice were fed either a regular chow or an HFD (60% kcal from fats, 20% from carbohydrates, and 20% from proteins) purchased from Bio-Serv (Frenchtown, NJ). Body weight and food intake were measure biweekly.
To examine the potential applicability in diet-induced obesity and diabetes, GLP1/GGBP-expressing cells and control cells (GGBP alone) were transplanted into two cohorts of CD1 adult male mice. The mice were fed a high fat diet (HFD) to induce obesity in grafted animals. Compared with animals on a regular chow diet, the HFD greatly accelerated body weight gain in mice grafted with control cells.
as §3, with “mice” for “mice with skin transplants”, “humidity,” for “humidity”
To examine the potential effect in diet-induced obesity and diabetes, GLP1-expressing cells and control cells were grafted onto two cohorts of CD1 adult mice, and a high fat diet (HFD) was used to induce obesity in the grafted animals. Doxycycline was applied to half of the animals to induce expression of GLP1. To minimize gender difference, only male animals were used. Compared with animals on regular chow diet, HFD greatly accelerated body weight gain in mice grafted with control cells or GLP1 cells without doxycycline treatment.

[9] = system: epidermal stem cells; test: Anchorage-independent growth in soft agar; details: SCC cancer initiating cells as positive control

In the case of GLP1, the “rejection of skin grafts after transplantation” value [1] is reported as “No significant rejection of the skin grafts has been observed”, the “GLP1 production and secretion” value ([2]; GLP1/GGBP expression cassette, constitutive) is reported as “robust GLP1 production and secretion” and the GLP1 production ([2]; tetracycline-inducible cassette, doxycycline stimulation) is reported as “robust GLP1 production upon stimulation with doxycycline in a dose-dependent manner”. The glycemic excursion ([3]; GLP1/GGBP grafts, blood glucose and GGBP imaging) was “significantly reduced glycemic excursion”, the glycemic excursion ([3]; HFD, doxycycline-induced GLP1) was “significantly reduced glycemic excursion” and the “insulin secretion induced by conditioned medium” value ([4]; conditioned medium from mouse epidermal cells) was “significantly induce secretion of insulin”. For the same substance, the “insulin secretion induced by secreted GLP1 fusion protein” value ([4]; from human epidermal cells) was “induced insulin secretion in vitro”, the “level of GLP1 in the blood” value ([5]; food containing doxycycline) was “significantly enhanced level of GLP1 in the blood” and the “duration of stable GLP1 expression in grafted animals” value ([5]; mouse, in vivo) was “more than 3 months”. The “GLP1 in the blood” value [6] was “significant secretion of GLP1 was detected in the blood”, the insulin resistance [7] was “significantly reduced insulin resistance” and the body weight increase ([8]; HFD, GLP1/GGBP-expressing grafts vs GGBP alone, CD1 male mice) was “significant inhibition in body weight increase”. For the same substance, the body weight ([8]; HFD, doxycycline-induced GLP1 expression, CD1 male mice) was “significant decrease in body weight”, the “HFD-induced adipocyte hypertrophy in white fat tissue” value ([8]; doxycycline-induced GLP1 expression) was “dramatically suppressed this effect” and the “anchorage-independent growth (tumorigenicity)” value [9] was “cannot grow in suspension”.
